SMILES strings stand for the structures.

Data set [1] deals with T1, rat vasopressin V1a receptor (Rattus norvegicus, UniProt P30560).
T1 construct: V1a receptor fractions derived from rat hepatic membrane; from tissue; host or cells: rat liver (hepatic membrane)
The experiment in a line: Binding inhibition test for rat V1a receptor (3H-AVP, rat hepatic membrane). To be noted: inhibition of 3H-AVP binding, rat hepatic membrane V1a receptor fractions, 4° C., 2 hours; read-out: Binding affinity rV1a (IC50). As to the method:
(§1) Various compounds were studied in binding affinities for vasopressin receptors with an indicator of binding inhibition of rat vasopressin V1a receptor and vasopressin V2 receptor of ^3H-arginine vasopressin (AVP) (NET800, available from PerkinElmer Inc., Life Sciences).
(1) Binding Inhibition Test for Rat V1a Receptor (rV1aR)
50 μg of V1a receptor fractions derived from rat hepatic membrane were diluted with a reaction solution (100 mM Tris-HCl (pH 8.0), 0.1% BSA, 5 mM MgCl2, 1 mM EDTA) and added to each well of a 96-well plate. A compound was added to each well in various concentrations (0.3 nM to 100 nM), and ^3H-AVP was added thereto in the range of 1 nM to 3 nM. Reactions were carried out at 4° C. for 2 hours on the plate. Via receptor fractions were collected with a 96-well glass filter (Unifilter GF/B) after the reactions and washed with a washing solution (10 mM Tris-HCl (pH 8.0), 5 mM MgCl2, 1 mM EDTA) three times, and then the radioactivity of ^3H-AVP was measured with a scintillation counter.
(§2) ^3H-AVP binding rate in the presence of a compound was calculated by the following equation. Binding rate (%)=(B−NSB)/(TB−NSB)×100 (B: Binding amount of ^3H-AVP in the presence of each compound, NSB: Binding amount of ^3H-AVP in the presence of 1 μM of unlabeled AVP, TB: Binding amount of ^3H-AVP in the absence of 1 μM of unlabeled AVP)

Data set [2] concerns the target T2, rat vasopressin V2 receptor (Rattus norvegicus, UniProt Q00788).
T2 construct: expressed in transfected cells; host or cells: CHO cells (rV2R-CHO)
The experiment in a line: Binding inhibition test for rat V2 receptor (3H-AVP, rV2R-CHO cells). The following applies: inhibition of 3H-AVP binding, 4° C., 2 hours, read-out: Binding affinity rV2 (IC50). The procedure:
as §1
(2) Binding Inhibition Test for Rat V2 Receptor (rV2R)
Rat V2 receptor-expressed CHO cells (rV2R—CHO) were incubated on 10% FBS-containing DMEM/F12 in a 24-well plate, and each cell was washed with D-PBS twice. A reaction solution (D-PBS containing 0.1% BSA and 0.05% sodium azide) comprising a compound in various concentrations (0.3 nM to 100 nM) was added to each well, and a certain amount of ^3H-AVP was added thereto (100-fold dilution). Reactions were carried out at 4° C. for 2 hours on the plate. Then, each well was washed with D-PBS twice and 0.1N NaOH was added to each well. The cells were collected, and the radioactivity of ^3H-AVP was measured with a scintillation counter.
as §2

The nature of data set [3]: Metabolic stability test in human liver microsomes. The data set is classed as in vitro ADME. The following applies: pH 7.4; human liver microsomes 1 mg/mL, test compound 1 μmol/L, NADPH and NADH, 37° C., n = 4; read-out: CLint (μL/min/mg) mean ± SD. The procedure:
Reaction System and Incubation
According to methods of Obach and Jones, et al. (methods described in R. S. Obach, Drug Metab. Dispos. 1999 (27): 1350-1359 and H. Jones and J. B. Houston, Drug Metab. Dispos. 2004 (32): 973-982), the reaction system shown below was prepared and metabolic stabilities of test compounds (the present compounds and, tolvaptan) were evaluated using the reaction system shown below. Human liver microsomes purchased from Corning Inc. were used. Test compounds were dissolved in DMSO at the concentration of 10 mmol/L and then diluted with acetonitrile to prepare a 100 μmol/L solution for use in the test. The 100 μmol/L solutions were used in the experiment.
Human liver microsome 1 mg/mL
Co-factor (NADPH and NADH) 1 mmol/L each
Magnesium chloride 5 mmol/L
100 mmol/L Potassium phosphate buffer (pH 7.4)
The reaction mixture without co-factors was pre-incubated at 37° C. for 5 minutes, and then the reaction was initiated by the addition of the co-factors. The mixture was incubated for 0, 5, 10, 20, 30, and 60 minutes after the addition of the co-factors. An aliquot of the reaction mixture was removed and added to a methanol solution containing an internal standard (IS) and mixed to terminate the reaction at each predetermined time.
After the reaction was terminated, the mixture was separated by centrifugation and the supernatant was injected into a liquid chromatograph-tandem mass spectrometer (LC-MS/MS) to measure unchanged substances remained in the reaction system. The mass spectrometer was operated in a positive ion mode of the electrospray ionization (ESI) method. Unchanged substances and the IS were detected by multiple reaction monitoring (MRM) transitions using selected precursor and product ions set.
The remaining ratios of test compounds were calculated by the following equation. Remaining ratio=(Peak area ratio of a test compound to IS at t minutes after incubation)÷(Peak area ratio of a test compound to IS at 0 minute)
The slope of X-axis (the incubation time) and Y-axis (logarithm of the remaining ratio) was calculated by a non-linear least square method. Hepatic intrinsic clearance (CLint) was calculated by the following equation. CLint(μL/min/mg)=−(Slope(min^−1))÷1(mg/mL)×1000

A short description of data set [4]: Pharmacokinetics study in mice, single oral dose. Format: in vivo. The following applies: mouse; male ICR mice, single-dose oral administration of 30 mg/kg, plasma. The procedure:
A pharmacokinetics (PK) study was performed using male ICR mice to compare the oral absorption properties of the present compounds with tolvaptan. A test compound was suspended in a 1% hydroxypropyl methylcellulose (HPMC) solution to be adjusted to the concentration of 4.5 mg/mL. The present compounds were used as the forms obtained in the above examples (including the amorphous form) for a test compound, or used after spray drying, if needed.
Male ICR mice (7-week old) were freely fed food and water and weighed on an electronic scale. Then, a test compound was orally administered at the dose of 30 mg/kg […]. After the oral administration, blood was collected from the abdominal vena cava under isoflurane anesthesia using a 1 mL heparinized syringe with a 26 G injection needle. Blood was separated by centrifugation at 4° C., 3000 rpm for 10 minutes to give plasma in a supernatant. The plasma concentration of a test compound was measured by LC-MS/MS.
The following PK parameters were calculated using the mean plasma concentrations of unchanged substances obtained from two animals at each time point.
Cmax: Maximum plasma concentration (μg/mL)
tmax: Time-to-maximum plasma concentration (h)
AUCinf: Area under the plasma concentration-time curve from administration to infinite time (μg h/mL)

T2 sequence (Q00788 whole entry): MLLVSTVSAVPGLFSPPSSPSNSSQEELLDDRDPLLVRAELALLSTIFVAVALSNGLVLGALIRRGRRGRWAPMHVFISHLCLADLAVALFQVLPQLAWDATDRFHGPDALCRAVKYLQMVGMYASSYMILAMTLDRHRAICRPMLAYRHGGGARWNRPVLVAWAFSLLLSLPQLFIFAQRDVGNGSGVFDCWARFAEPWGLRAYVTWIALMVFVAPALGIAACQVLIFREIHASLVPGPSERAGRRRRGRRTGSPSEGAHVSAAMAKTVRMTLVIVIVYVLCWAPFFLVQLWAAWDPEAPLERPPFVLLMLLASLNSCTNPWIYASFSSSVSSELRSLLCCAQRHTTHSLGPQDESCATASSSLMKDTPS
T1 sequence (P30560 whole entry): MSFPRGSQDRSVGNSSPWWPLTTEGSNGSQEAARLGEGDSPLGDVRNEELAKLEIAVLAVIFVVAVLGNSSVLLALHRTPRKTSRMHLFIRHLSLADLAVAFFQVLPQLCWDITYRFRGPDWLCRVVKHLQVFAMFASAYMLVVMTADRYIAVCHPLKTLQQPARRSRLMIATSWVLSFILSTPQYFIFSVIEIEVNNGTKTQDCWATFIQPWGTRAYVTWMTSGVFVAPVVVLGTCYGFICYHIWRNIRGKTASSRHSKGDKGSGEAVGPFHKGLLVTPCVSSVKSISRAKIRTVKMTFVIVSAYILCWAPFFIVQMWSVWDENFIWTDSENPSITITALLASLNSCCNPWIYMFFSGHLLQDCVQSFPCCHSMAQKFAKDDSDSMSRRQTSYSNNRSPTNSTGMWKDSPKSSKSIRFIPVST

For the compound `O=C(Nc1ccc(C(=O)N2CCC(F)(F)[C@](O)(CO)c3cc(Cl)ccc32)cc1)c1cc(F)ccc1-c1ccccc1F` [Example 169, N-{4-[(5R)-7-chloro-4,4-difluoro-5-hydroxy-5-(hydroxymethyl)-2,3,4,5-tetrahydro-1H-1-benzazepine-1-carbonyl]phenyl}-2′,4-difluoro-[1,1′-biphenyl]-2-carboxamide], the IC50 (commonly the concentration that inhibits the measured activity by half) in data set [1] stood at 1.6 nM. Further, in data set [2], the IC50 was determined as 3.3 nM. Further, in data set [3], the microsomal CLint at 1 μmol/L turned out to be 5.09 ± 0.32 µL/min/mg. For the same compound, in data set [4], the AUC(0-inf) (in general, total exposure, with the tail of the curve extrapolated) is 32200 ng·h/mL; the Cmax (as a rule, the highest concentration seen after dosing) amounted to 5650 ng/mL; the Tmax (in general, the time at which the peak concentration occurs) is 1 h.
For `O=C(Nc1ccc(C(=O)N2CCC(F)(F)[C@](O)(CO)c3cc(Cl)ccc32)cc1)c1cc(F)ccc1C(F)(F)F` [Example 127, N-{4-[(5R)-7-chloro-4,4-difluoro-5-hydroxy-5-(hydroxymethyl)-2,3,4,5-tetrahydro-1H-1-benzazepine-1-carbonyl]phenyl}-5-fluoro-2-(trifluoromethyl)benzamide], in data set [1], the IC50 was found to be 7.2 nM. Further, in data set [2], the IC50 came out at 1.8 nM. Besides, the microsomal CLint at 1 μmol/L in data set [3] is under 4 µL/min/mg. For the same compound, in data set [4], the AUC(0-inf) was 93800 ng·h/mL, the Cmax was determined as 7950 ng/mL and the Tmax stood at 1 h.
Take `O=C(Nc1ccc(C(=O)N2CCC(F)(F)[C@](O)(CO)c3cc(Cl)ccc32)cc1)c1cc(F)ccc1Cl` [Example 23, 2-chloro-N-{4-[(5R)-7-chloro-4,4-difluoro-5-hydroxy-5-(hydroxymethyl)-2,3,4,5-tetrahydro-1H-1-benzazepine-1-carbonyl]phenyl}-5-fluorobenzamide]: in data set [1], the IC50 is 2.6 nM. In addition, the IC50 in data set [2] amounted to 1 nM. Also, the microsomal CLint at 1 μmol/L in data set [3] came out at 1.11 ± 2.21 µL/min/mg. Further, in data set [4], the AUC(0-inf) came to 71300 ng·h/mL, the Cmax turned out to be 5420 ng/mL and the Tmax came out at 4 h.
On to `O=C(Nc1ccc(C(=O)N2CCC(F)(F)[C@](O)(CO)c3cc(Cl)ccc32)cn1)c1cc(F)ccc1-c1ccccc1F` [Example 165, N-{5-[(5R)-7-chloro-4,4-difluoro-5-hydroxy-5-(hydroxymethyl)-2,3,4,5-tetrahydro-1H-1-benzazepine-1-carbonyl]pyridin-2-yl}-2′,4-difluoro-[1,1′-biphenyl]-2-carboxamide], for which the IC50 in data set [1] was 1.7 nM. Besides, the IC50 in data set [2] turned out to be 3.4 nM. The microsomal CLint at 1 μmol/L in data set [3] amounted to 3.61 ± 2.43 µL/min/mg. In addition, in data set [4], the AUC(0-inf) worked out at 41500 ng·h/mL, the concentration peaked (Cmax) at 7720 ng/mL and the Tmax came out at 1 h.
In the case of `O=C(Nc1ccc(C(=O)N2CCC(F)(F)[C@](O)(CO)c3cc(Cl)ccc32)cn1)c1ccccc1-c1ccccc1` [Example 63, N-{5-[(5R)-7-chloro-4,4-difluoro-5-hydroxy-5-(hydroxymethyl)-2,3,4,5-tetrahydro-1H-1-benzazepine-1-carbonyl]pyridin-2-yl}-[1,1′-biphenyl]-2-carboxamide], the IC50 in data set [1] came to 1.4 nM. The IC50 in data set [2] was found to be 1.1 nM. In addition, the microsomal CLint at 1 μmol/L in data set [3] turned out to be 3.1 ± 3.58 µL/min/mg. Also, in data set [4], the AUC(0-inf) is 14400 ng·h/mL, the peak level (Cmax) was 4440 ng/mL and the Tmax is 1 h.
`O=C(Nc1ccc(C(=O)N2CCC(F)(F)C(O)(CO)c3cc(Cl)ccc32)cn1)c1cc(F)ccc1Cl` (stereo not drawn) [Example 3, 2-chloro-N-{5-[7-chloro-4,4-difluoro-5-hydroxy-5-(hydroxymethyl)-2,3,4,5-tetrahydro-1H-1-benzazepine-1-carbonyl]pyridin-2-yl}-5-fluorobenzamide]: the IC50 in data set [1] came to 9.5 nM. Besides, in data set [2], the IC50 turned out to be 2.1 nM. Also, the microsomal CLint at 1 μmol/L in data set [3] was under 4 µL/min/mg. Besides, in data set [4], the AUC(0-inf) is 38900 ng·h/mL, the Cmax amounted to 4820 ng/mL and the Tmax was found to be 1 h.
With `O=C(Nc1ccc(C(=O)N2CCC(F)(F)[C@](O)(CO)c3cc(Cl)ccc32)cc1F)c1cc(F)ccc1C(F)F` [Example 157, N-{4-[(5R)-7-chloro-4,4-difluoro-5-hydroxy-5-(hydroxymethyl)-2,3,4,5-tetrahydro-1H-1-benzazepine-1-carbonyl]-2-fluorophenyl}-2-(difluoromethyl)-5-fluorobenzamide], in data set [1], the IC50 is 12 nM. Moreover, in data set [2], the IC50 is 3.2 nM. The microsomal CLint at 1 μmol/L in data set [3] was under 4 µL/min/mg. Moreover, in data set [4], the AUC(0-inf) was 80500 ng·h/mL, the concentration peaked (Cmax) at 6210 ng/mL and the Tmax came out at 1 h.
`O=C(Nc1ccc(C(=O)N2CCC(F)(F)[C@](O)(CO)c3cc(Cl)ccc32)cc1F)c1cc(F)ccc1-c1ccccc1F` [Example 168, N-{4-[(5R)-7-chloro-4,4-difluoro-5-hydroxy-5-(hydroxymethyl)-2,3,4,5-tetrahydro-1H-1-benzazepine-1-carbonyl]-2-fluorophenyl}-2′,4-difluoro-[1,1′-biphenyl]-2-carboxamide]: in data set [1], the IC50 was found to be 2.2 nM. The IC50 in data set [2] was found to be 4.7 nM. Also, in data set [3], the microsomal CLint at 1 μmol/L was found to be 7.48 ± 1.5 µL/min/mg. Also, in data set [4], the AUC(0-inf) worked out at 40900 ng·h/mL, the Cmax came to 7110 ng/mL and the Tmax was found to be 1 h.
For `O=C(Nc1ccc(C(=O)N2CCC(F)(F)[C@](O)(CO)c3cc(Cl)ccc32)cn1)c1cccnc1-c1ccccc1` [Example 97, N-{5-[(5R)-7-chloro-4,4-difluoro-5-hydroxy-5-(hydroxymethyl)-2,3,4,5-tetrahydro-1H-1-benzazepine-1-carbonyl]pyridin-2-yl}-2-phenylpyridine-3-carboxamide], the IC50 in data set [1] was 5.4 nM. The IC50 in data set [2] was 1.4 nM. Moreover, in data set [3], the microsomal CLint at 1 μmol/L turned out to be 6.98 ± 4.77 µL/min/mg. For the same compound, in data set [4], the AUC(0-inf) was 8310 ng·h/mL, the highest level (Cmax) was 3130 ng/mL and the Tmax was found to be 1 h.
As for `O=C(Nc1ccc(C(=O)N2CCC(F)(F)[C@](O)(CO)c3cc(Cl)ccc32)cc1F)c1cc(F)ccc1C(F)(F)F` [Example 132], in data set [1], the IC50 came out at 5.2 nM. Also, the IC50 in data set [2] was determined as 2.3 nM. In data set [3], the microsomal CLint at 1 μmol/L was under 4 µL/min/mg. Also, in data set [4], the AUC(0-inf) stood at 56500 ng·h/mL, the highest concentration (Cmax) was 3590 ng/mL and the Tmax was 4 h.

(Values after patent US11673878B2, “Benzazepine derivatives” (OTSUKA PHARMACEUTICAL CO., LTD., priority 2017, dated 2023).)
